Patent US11059807B2, “Amine cationic lipids and uses thereof” (Dicerna Pharmaceuticals, Inc., priority 2011, dated 2021)

How the values were obtained:
[1] = TNS fluorescence method, apparent pKa of lipid in formulation; format: physicochemical; conditions: apparent pKa of the formulation, pH at half-maximal TNS fluorescence
From the text: The TNS fluorescence method may be used to determine the apparent pKa of the lipid in the formulation. TNS (2-(p-toluidino)-6-naphthalene sulfonic acid) is a negatively charged fluorescent dye whose fluorescence is quenched in the presence of water. […] The increase in the fluorescence can thus be used to estimate the ionization of a cationic lipid when present in different pH environment. Methods of determining pKa using TNS are known in the art, e.g., as described in the Examples.
To determine pKa values of the cationic lipids of the invention, formulations (concentration of 1 mM) were incubated in phosphate buffer at different pH values, to which TNS dissolved in DMSO was added (resulting final concentration of 6 μM TNS). Fluorescence of the resulting solution was measured on a SpectraMax® M3 fluorescence plate reader with excitation wavelength of 325 nm and emission wavelength of 435 nm. The measured fluorescence of TNS was fitted with a three-parameter sigmoidal function shown in equation 1.
The pH at which half of the maximum fluorescence was reached was reported as the apparent pKa of the formulation, where a and b are dimensionless parameters reflecting the maximum observed fluorescence and slope of the sigmoidal function, respectively.

[2] = tested on: HPRT1 mRNA in mouse liver; assay: In vivo knockdown of HPRT1 mRNA in mouse liver, lipid particles with DsiRNA; conditions: CD1 mice; for % mRNA Knockdown: single IV dose 5 mg/kg, HPRT1 DsiRNA; for % mRNA Knockdown / mrna remaining at 5 mg/kg: 48 hours; for gene silencing at the lower dose: single dose 1 mg/kg, FIG. 12; for mrna remaining at 5 mg/kg: Mus musculus, single dose 5 mg/kg, FIG. 11, read-out: remaining mRNA levels
Method: Formulations were prepared with the following approximate percentages: 20 mol % of one of either L-1, L-2, L-5, L-6, L-7, L-8, L-22, or L-30; 26 mol % of DODMA; 3 mol % of PEG2000-DMPE; 3 mol % of PEG2000-DMG; 13 mol % of DSPC; and 33 mol % of cholesterol. The formulation further included a DsiRNA:total lipid ratio of about 1:20 (w/w).
Approximately 4-week old CD1 female mice were administered a single dose (either 1 mg/kg or 5 mg/kg) of the lipid particle formulation with a dosing volume of 10 μL/g of body weight by intravenous administration via a tail vein. After 48 hours (post-dosing), tissues were collected in RNALater (Qiagen). In the end point analysis, the total RNA was isolated from the mouse liver for RT-qPCR. The RNA sample was heated at 70° C., for 5 minutes with Oligo(dT) primers before RT. In the PCR reaction, mHPRT expression was normalized with RPL23 (a housekeeping gene, used as a control herein). FIGS. 11 and 12 show data with error bars with mean±SD for n=5 animals/group.

[3] = Tolerability of lipid formulations in CD-1 mice (serum clinical chemistry, body weight, liver); format: in vivo, mouse; conditions: female CD-1 mice, 2 doses (qod) 10 mg/kg DsiRNA
Method: In order to assess the tolerability of a lipid formulation containing an amino-amine or amino-amide cationic lipid of the invention and a dsRNA, female CD-1 mice were injected with L-6 and L-30 formulations [administered in 2 doses (qod) at 10 mg/kg DsiRNA dose, about 200 mg/kg total lipid dose each] and serum samples were collected 48 hours after the second dose. Serum samples were tested for a panel of clinical chemistry assessments, including liver function tests (LFTs) via measurement of enzymes alanine transaminase (ALT) and aspartate transaminase (AST). Phosphate buffered saline (PBS) was used as vehicle control group. ALT and AST elevation was <3x of PBS group for formulations L-6 and L-30. There were also no changes in body weight or liver observed for L-6 and L-30 formulations. Thus, L-6 and L-30 formulations were well-tolerated. Thus, any of the lipids described herein, and formulations thereof, would be useful for the delivery of one or more agent, e.g., polyanionic or antisense payloads.

[4] = tested on: HPRT1 mRNA in liver tissues; assay: HepG2 orthotopic liver tumor model: HPRT1 mRNA knockdown in liver; format: in vivo, mouse; conditions: 5 mg/kg DsiRNA IV, Table 8 formulation, FIG. 14
From the text: In order to assess the efficiency of targeting and subsequent functionality of an amino-amine or amino-amide cationic lipid formulation of dsRNA, a second intrahepatic tumor model was utilized. Liver tumors were established in mice by direct intrahepatic injection of HepG2 tumor cells. Female nu/nu mice were used as hosts for the HepG2 tumors. Maintaining the mice under anesthesia using Avertin (Sigma), a single 1-cm incision across the midline was made below the sternum, and the left lateral hepatic lobe is exteriorized. Approximately 3×10^6 HepG2 cells suspended in 60 μL of 50% PBS/50% Matrigel™ (BD) are injected slowly into the lobe at a shallow angle using a Hamilton syringe and a 30-gauge needle. A swab was then applied to the puncture wound to stop any bleeding prior to suturing. Mice were allowed to recover from anesthesia in a sterile cage and monitored closely for 2-4 hours before being returned to conventional housing. About three weeks after tumor implantation, mice were randomized into treatment groups. […] The dose was calculated based on mg of dsRNAs/kg of body weight basis according to individual animal weights. […] Body weights were monitored throughout the duration of the study as an indicator of developing tumor burden and treatment tolerability. For efficacy studies, defined humane end points were determined as a surrogate for survival. […]

Hep3B tumor = assay: Hepatocellular carcinoma anti-tumor efficacy, orthotopic Hep3B model (serum AFP, tumor weight); format: in vivo, mouse; conditions: 5 mg/kg active DsiRNA IV, vs control payload and PBS; for reducing serum AFP: FIG. 15; for reducing tumor weight: FIG. 16
From the text: Liver tumors were established in mice by direct intrahepatic injection of Hep3B tumor cells as described in Example 10. About two weeks after tumor implantation, mice were randomized into treatment groups. Mice (n=6 per group) received: either (1) the amino-amine or amino-amide lipid formulation of a control dsRNA; (2) the amino-amine or amino-amide lipid formulation of an active dsRNA; or (3) vehicle control, as administered by standard intravenous (i.v.) injection via the lateral tail vein. The dose was calculated based on mg of dsRNAs/kg of body weight basis according to individual animal weights. In the experiments that generated the results shown in FIGS. 15 and 16, animals were dosed at 5 mg/kg DsiRNA with L-6- or L-30-formulated lipid particles. Table 8 above presents specific compositions of lipid formulations comprising the L-6 and L-30 lipids used in the instant studies.
Body weights were monitored throughout the duration of the study as an indicator of developing tumor burden and treatment tolerability. For efficacy studies, defined humane end points were determined as a surrogate for survival. Assessments were made based on a combination of clinical signs, weight loss, and abdominal distension to define the day of euthanization due to tumor burden. Tumor tissues were removed from the animals of different treatment groups and tumor weights were measured to determine efficacy of different treatment groups. Serum α-fetoprotein (AFP) levels were also measured as a biomarker for tumor burden.

SMILES | pKa [1] | % mRNA Knockdown [2] | gene silencing at the lower dose [2] | mrna remaining at 5 mg/kg [2] | changes in body weight or liver [3] | tolerability [3] | delivery of anti-HPRT1 DsiRNA payload to liver tissues [4] | reducing serum AFP (Hep3B tumor) | reducing tumor weight (Hep3B tumor)
CCCCC/C=C\C/C=C\CCCCCCCCC(CCCCCCCC/C=C\C/C=C\CCCCC)N1CCN(C)CC1 [Compound L-6] | 5.6 | 88.2% | effective gene silencing | 15 to 45% | no changes | well-tolerated | remarkably effective | remarkably effective | remarkably effective
CCCCC/C=C\C/C=C\CCCCCCCCC(CCCCCCCC/C=C\C/C=C\CCCCC)NC(=O)CN(C)C [Compound L-30] | 5.8 | 86.4% | effective gene silencing | ~15% | no changes | well-tolerated | remarkably effective | remarkably effective | remarkably effective
